Structures are written as SMILES.

One may read the IC50 as the concentration that inhibits the measured activity by half.

For this assay, the system named is PDE4. Briefly: PDE4 Assay Procedure ([3H]-cAMP SPA). As to conditions: 15 nM [3H]-cAMP, 1 hour at room temperature, SPA beads; compounds tested from 10 μM to 10 pM. The assay is classed as biochemical.
Procedure: Compounds to be tested were resuspended in DMSO at a stock concentration of 1 mM. […] These dilutions were done in 96-well plates. In some cases, plates containing diluted compounds were frozen before being assayed. In these cases, the plates were thawed at room temperature and stirred for 15 minutes.
Ten microliters of the diluted compounds were poured into a “low binding” assay plate. […] The reaction was initiated by adding ten microliters of a solution containing PDE4. The plate was then incubated under stirring for 1 hour at room temperature. After incubation the reaction was stopped with 50 microlitres of SPA beads, and the reaction was allowed to incubate for another 20 minutes at room temperature before measuring radioactivity using standard instrumentation.
The reaction mixture was prepared by adding 90 ml of H2O to 10 ml of 10× assay buffer (500 mM Tris pH 7.5, 83 mM MgCl2, 17 mM EGTA), and 40 microlitres 1 μCi/μL [3H]-cAMP. SPA beads solution was prepared by adding 500 mg to 28 ml H2O for a final concentration of 20 mg/ml beads and 18 mM zinc sulphate.
For `CC1(C)CCc2c(N3CCSCC3)nc3sc4c(NCc5ccccn5)ncnc4c3c2C1` [Example 16, 2,2-Dimethyl-N-(pyridin-2-ylmethyl)-5-thiomorpholin-4-yl-1,2,3,4-tetrahydropyrimido[4′,5′:4,5]thieno[2,3-c]isoquinolin-8-amine], the IC50 worked out at 3 nM. As for `CC1(C)CCc2c(N3CCCC3)nc3sc4c(NCCN5CCOCC5)ncnc4c3c2C1` [Example 23, 2,2-Dimethyl-N-(2-morpholin-4-ylethyl)-5-pyrrolidin-1-yl-1,2,3,4-tetrahydropyrimido[4′,5′:4,5]thieno[2,3-c]isoquinolin-8-amine], the figure is 8.1 nM; as for `CC1(C)CCc2c(N3CCCC3)nc3sc4c(NCc5ccncc5)ncnc4c3c2C1` [Example 24, 2,2-Dimethyl-N-(pyridin-4-ylmethyl)-5-pyrrolidin-1-yl-1,2,3,4-tetrahydropyrimido[4′,5′:4,5]thieno[2,3-c]isoquinolin-8-amine], 14 nM; as for `CC1(C)CCc2c(N3CCCC3)nc3sc4c(NCc5cccnc5)ncnc4c3c2C1` [Example 25], 1.5 nM. The same measure for `CCOC(=O)N1CCN(CCNc2ncnc3c2sc2nc(N(C)C)c4c(c23)CC(C)(C)CC4)CC1` [Example 43, Ethyl 4-(2-{[5-(dimethylamino)-2,2-dimethyl-1,2,3,4-tetrahydropyrimido[4′,5′:4,5]thieno[2,3-c]isoquinolin-8-yl]amino}ethyl)piperazine-1-carboxylate]: 7.9 nM.

On to `CCN(C)c1nc2sc3c(NCC(=O)NCC4CCCO4)ncnc3c2c2c1CCC(C)(C)C2` (stereo not drawn) [Example 54, N^2-{5-[Ethyl(methyl)amino]-2,2-dimethyl-1,2,3,4-tetrahydropyrimido[4′,5′:4,5]thieno[2,3-c]isoquinolin-8-yl}-N^1-(tetrahydrofuran-2-ylmethyl)glycinamide], for which the midpoint of inhibition, the IC50, lay at 10 nM.

Take `CC(C)Cc1nc2sc3c(NCCCN4CCCC4=O)ncnc3c2c2c1CCC(C)(C)C2` [Example 60, 1-{3-[(5-Isobutyl-2,2-dimethyl-1,2,3,4-tetrahydropyrimido[4′,5′:4,5]thieno[2,3-c]isoquinolin-8-yl)amino]propyl}pyrrolidin-2-one]: the IC50 came out at 4.8 nM. `CC1(C)CCc2c(-c3ccco3)nc3sc4c(NCCN5CCOCC5)ncnc4c3c2C1` [Example 62, 5-(2-Furyl)-2,2-dimethyl-N-(2-morpholin-4-ylethyl)-1,2,3,4-tetrahydropyrimido[4′,5′:4,5]thieno[2,3-c]isoquinolin-8-amine] showed a half-maximal inhibitory concentration (IC50) of 3.8 nM. The compound `CN(C)c1nc2sc3c(NCc4cccnc4)ncnc3c2c2c1CC(C)(C)C2` [Example 79, N^4,N^4,2,2-Tetramethyl-N-(pyridin-3-ylmethyl)-2,3-dihydro-1H-cyclopenta[4′,5′]pyrido[3′,2′:4,5]thieno[3,2-d]pyrimidin-4,7-diamine] registered an IC50 of 4.6 nM. The IC50 values of the last two compounds are within 1.5-fold of each other.
